Measurements published in article PMC10578023 (Cell Communication and Signaling : CCS, 2023).
Like-named read-outs stand apart in the source and are kept apart here.

Legend:
[1] = rats, data not shown
[2] = dogs, data not shown
TYK2/JAK1 [3] = assay: IFNα-induced pSTAT1 in CD3+ T cells of human PBMCs; type: cell-based
Experimental: The reaction was terminated by collecting cells for surface staining. Cells were stained with anti-CD3 FITC (300406; Biolegend, San Diego, CA, USA), anti-CD19 APC (555415; BD Biosciences) or aqua fluorescent reactive dye BV421 (L34966A; Invitrogen, Carlsbad, CA, USA) antibodies for 20 min. After washing, fixation buffer (557870; BD Biosciences) was added and incubated for 10 min. Cells were washed and permeabilized on ice using Perm III Buffer (558050; BD Biosciences). Cells were stained with PE anti-PSTAT1 antibody (562069; BD Biosciences) for 30 min and analyzed by flow cytometry.

human monocytes = assay: IFNα-induced differentiation of human monocytes to dendritic cells (CD80, CD83, CD86); type: cell-based; settings: 5, 20 or 100 nM, 6 days
Experimental: First, monocytes in human PBMCs were isolated using an EasySep™ Human CD14 Positive Selection Kit II (17858; Stemcell Technologies, Vancouver, Canada). […] The media were half-changed on days 3 and 5. On day 6, cells were collected and stained with BV421 aqua fluorescent reactive dye (L34966A; Invitrogen), FITC mouse anti-human CD80 (555683; BD Biosciences), PE mouse anti-human CD86 (560957; BD Biosciences) or BUV737 mouse anti-human CD83 (612823; BD Biosciences) antibodies for 20 min. After staining, cells were washed twice and analyzed by flow cytometry.

JAK2/JAK2 = assay: GM-CSF-stimulated pSTAT5 in U937 cells; type: cell-based, human
Experimental: With respect to GM-CSF-stimulated JAK2 activation in U937 cells (Cobioer Biosciences, CBP60277), after 1 h of treatment with QL-1200186, U937 cells were stimulated with GM-CSF (20 ng/mL; C003; Novoprotein, Suzhou, China) for 15 min.
(§1) The stimulations stated above were terminated with prewarmed Lyse/Fix Buffer (558,049; BD Biosciences, San Jose, CA, USA) for 10 min. Cells were stained with an anti-cluster of differentiation (CD)3 fluorescein isothiocyanate (FITC) antibody (required for PBMCs but not for the other cell types), washed, and permeabilized on ice using Perm III Buffer (558,050; BD Biosciences) prior to staining with an Alexa Fluor 647 anti-phosphorylated (p)STAT5 (pY694) antibody for 30 min and analyzed by flow cytometry. Phosphorylation of STAT5 was quantified by the median fluorescence intensity (MFI) after gating on the CD3-positive population.

JAK2 (JH1) = JAK2 (JH1) (Homo sapiens, UniProt O60674); assay: JH1 kinase assay, HTRF KinEASE-TK; type: biochemical
Experimental: (§2) We measured the ability of a compound to bind to JAK1/2/3 and the TYK2 JH1 domain by using HTRF® KinEASE™-TK kits (Millipore, Bedford, MA, USA). JAK1/2/3 and the TYK2 JH1 domain in assay buffer were added to various concentrations of QL-1200186 and incubated for 15 min at RT. Then, the plate was incubated with the biotin-labeled TK substrate and adenosine triphosphate for 45 min at RT. Next, SA-XL665 and TK antibody-Eu3 were added to the detection buffer and incubated for 1 h at RT. The HTRF signal was measured on a plate reader (Envision).

JAK3 (JH1) = JAK3 (JH1) (Homo sapiens, UniProt P52333); assay: JH1 kinase assay, HTRF KinEASE-TK; type: biochemical
Experimental: as §2

TYK2 JH1 domain = biological target: T1, TYK2 JH1 domain (Homo sapiens, UniProt P29597); assay: JH1 kinase assay, HTRF KinEASE-TK; type: biochemical
T1 construct: JAK1/2/3 and the TYK2 JH1 domain in assay buffer were added
Experimental: as §2

TYK2/JAK1 [4] = assay: IL-23 HEK293 reporter assay; type: cell-based, human
JAK1 (JH1) = JAK1 (JH1) (Homo sapiens, UniProt P23458); assay: JH1 kinase assay, HTRF KinEASE-TK; type: biochemical
Experimental: We measured the ability of a compound to bind to JAK1/2/3 and the TYK2 JH1 domain by using HTRF® KinEASE™-TK kits (Millipore, Bedford, MA, USA). […] Next, SA-XL665 and TK antibody-Eu3 were added to the detection buffer and incubated for 1 h at RT. The HTRF signal was measured on a plate reader (Envision).

TYK2/JAK1 [5] = assay: IFNα-stimulated pSTAT5 in human PBMC (CD3+), FACS; type: cell-based
Experimental: With regard to IFNα-stimulated phosphorylation of STAT5 in human peripheral blood mononuclear cells (PBMCs), after incubation with QL-1200186 for 1 h, human PBMCs were stimulated with recombinant human IFNα (1000 U/mL; 11200–2; PBL Assay Science) for 30 min.
as §1

TYK2/JAK1 [6] = assay: IL-23-induced pSTAT3 in human Th17 cells; type: cell-based
Experimental: Human naïve CD4^+ T cells were separated using a human naïve CD4^+ T-cell isolation kit (StemCell, #17,852), and then cells were stimulated with anti-CD3 monoclonal antibody and anti-CD28 monoclonal antibody for 7–10 days under the following Th17-skewing treatments: IL-6, IL-23, IL-1β and transforming growth factor-β. Half of the medium was replaced with fresh medium containing a stimulant to induce differentiation every other day. Th17 cells were incubated overnight at 37 °C for deactivation. Cells were reinoculated on 96-well plates and cocultured with gradient-diluted QL-1200186 for 1 h and then stimulated with recombinant human IL-23 (ACRO: #IL-B-H52 WS) for 0.5 h. Cells were collected, and phosphorylation of STAT3 was quantified according to the MFI.

TYK2 = biological target: T2, TYK2 (Homo sapiens, UniProt P29597); assay: IFNα-stimulated TYK2 phosphorylation in Jurkat cells, western blot; type: cell-based; settings: IFNα 1000 U/mL
T2 construct: host or cells: Jurkat cells
Excerpt: Then, the phosphorylation of Tyr-1054 and Tyr-1055 in Jurkat cells (Cobioer Biosciences: CBP61444) was detected by western blotting to determine the inhibitory effect of QL-1200186 on TYK2 receptor-mediated activation.

CYP450 2D6 = CYP450 2D6 (Homo sapiens, UniProt P10635); assay: CYP inhibition assay; type: in vitro ADME
Experimental: (§3) The ADME properties of QL-1200186 in vitro were measured by the following assays: Caco-2 permeability assay, CYP inhibition assay, protein binding assay, and liver microsome assay. Each assay was performed as previously described.

CYP450 2C19 = CYP450 2C19 (Homo sapiens, UniProt P33261); assay: CYP inhibition assay; type: in vitro ADME
Experimental: as §3

CYP450 2C9 = CYP450 2C9 (Homo sapiens, UniProt P11712); assay: CYP inhibition assay; type: in vitro ADME
Experimental: as §3

Chain of JAK3 (JH1) (P52333 822-1111 limits assumed): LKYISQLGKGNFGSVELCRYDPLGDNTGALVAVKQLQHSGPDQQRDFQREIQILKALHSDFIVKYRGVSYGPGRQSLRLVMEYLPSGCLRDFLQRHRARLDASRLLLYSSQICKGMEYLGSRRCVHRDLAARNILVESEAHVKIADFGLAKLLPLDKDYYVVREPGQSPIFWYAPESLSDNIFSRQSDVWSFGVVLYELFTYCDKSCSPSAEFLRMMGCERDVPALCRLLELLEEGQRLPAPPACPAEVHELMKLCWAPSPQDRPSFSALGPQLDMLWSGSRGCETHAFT
T1 sequence (P29597 897-1176 limits assumed): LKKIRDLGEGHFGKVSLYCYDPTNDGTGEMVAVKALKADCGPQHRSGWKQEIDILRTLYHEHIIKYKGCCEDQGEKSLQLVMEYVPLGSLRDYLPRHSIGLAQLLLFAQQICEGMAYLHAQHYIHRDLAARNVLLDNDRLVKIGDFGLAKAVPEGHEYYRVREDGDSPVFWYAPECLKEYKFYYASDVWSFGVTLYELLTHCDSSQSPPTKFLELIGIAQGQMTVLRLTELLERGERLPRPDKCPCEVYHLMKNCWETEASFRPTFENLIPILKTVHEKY
Chain of JAK2 (JH1) (O60674 849-1124 limits assumed): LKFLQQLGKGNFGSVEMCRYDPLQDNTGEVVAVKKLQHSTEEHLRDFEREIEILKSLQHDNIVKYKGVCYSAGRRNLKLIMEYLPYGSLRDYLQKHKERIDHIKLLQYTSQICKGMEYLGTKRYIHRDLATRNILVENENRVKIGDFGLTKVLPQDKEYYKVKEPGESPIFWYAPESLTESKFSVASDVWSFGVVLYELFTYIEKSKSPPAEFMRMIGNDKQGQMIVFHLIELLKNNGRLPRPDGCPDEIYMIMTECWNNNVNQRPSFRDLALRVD
Chain of JAK1 (JH1) (P23458 875-1153 limits assumed): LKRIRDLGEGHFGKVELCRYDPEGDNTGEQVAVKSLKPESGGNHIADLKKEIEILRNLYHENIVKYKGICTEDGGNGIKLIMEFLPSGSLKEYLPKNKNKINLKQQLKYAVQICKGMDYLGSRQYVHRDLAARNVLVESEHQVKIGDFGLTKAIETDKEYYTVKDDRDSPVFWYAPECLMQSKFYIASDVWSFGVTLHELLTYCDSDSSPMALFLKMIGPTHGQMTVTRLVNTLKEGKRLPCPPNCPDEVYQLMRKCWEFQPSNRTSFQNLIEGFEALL
Chain of CYP450 2D6 (P10635 whole entry): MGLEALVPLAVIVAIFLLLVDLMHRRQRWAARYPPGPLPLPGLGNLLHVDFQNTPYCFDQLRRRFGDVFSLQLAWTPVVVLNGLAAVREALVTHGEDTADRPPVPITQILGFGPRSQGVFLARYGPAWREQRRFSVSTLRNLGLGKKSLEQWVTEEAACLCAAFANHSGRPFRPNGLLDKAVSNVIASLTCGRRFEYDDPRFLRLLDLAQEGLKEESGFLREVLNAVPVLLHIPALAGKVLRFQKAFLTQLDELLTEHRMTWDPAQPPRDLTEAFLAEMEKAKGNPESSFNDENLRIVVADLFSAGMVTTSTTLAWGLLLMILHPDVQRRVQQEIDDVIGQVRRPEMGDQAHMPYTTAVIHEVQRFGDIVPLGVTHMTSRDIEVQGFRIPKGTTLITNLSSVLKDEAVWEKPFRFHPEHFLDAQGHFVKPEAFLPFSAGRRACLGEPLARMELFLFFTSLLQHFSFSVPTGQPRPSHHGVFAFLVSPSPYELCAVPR
T2 sequence (P29597 whole entry): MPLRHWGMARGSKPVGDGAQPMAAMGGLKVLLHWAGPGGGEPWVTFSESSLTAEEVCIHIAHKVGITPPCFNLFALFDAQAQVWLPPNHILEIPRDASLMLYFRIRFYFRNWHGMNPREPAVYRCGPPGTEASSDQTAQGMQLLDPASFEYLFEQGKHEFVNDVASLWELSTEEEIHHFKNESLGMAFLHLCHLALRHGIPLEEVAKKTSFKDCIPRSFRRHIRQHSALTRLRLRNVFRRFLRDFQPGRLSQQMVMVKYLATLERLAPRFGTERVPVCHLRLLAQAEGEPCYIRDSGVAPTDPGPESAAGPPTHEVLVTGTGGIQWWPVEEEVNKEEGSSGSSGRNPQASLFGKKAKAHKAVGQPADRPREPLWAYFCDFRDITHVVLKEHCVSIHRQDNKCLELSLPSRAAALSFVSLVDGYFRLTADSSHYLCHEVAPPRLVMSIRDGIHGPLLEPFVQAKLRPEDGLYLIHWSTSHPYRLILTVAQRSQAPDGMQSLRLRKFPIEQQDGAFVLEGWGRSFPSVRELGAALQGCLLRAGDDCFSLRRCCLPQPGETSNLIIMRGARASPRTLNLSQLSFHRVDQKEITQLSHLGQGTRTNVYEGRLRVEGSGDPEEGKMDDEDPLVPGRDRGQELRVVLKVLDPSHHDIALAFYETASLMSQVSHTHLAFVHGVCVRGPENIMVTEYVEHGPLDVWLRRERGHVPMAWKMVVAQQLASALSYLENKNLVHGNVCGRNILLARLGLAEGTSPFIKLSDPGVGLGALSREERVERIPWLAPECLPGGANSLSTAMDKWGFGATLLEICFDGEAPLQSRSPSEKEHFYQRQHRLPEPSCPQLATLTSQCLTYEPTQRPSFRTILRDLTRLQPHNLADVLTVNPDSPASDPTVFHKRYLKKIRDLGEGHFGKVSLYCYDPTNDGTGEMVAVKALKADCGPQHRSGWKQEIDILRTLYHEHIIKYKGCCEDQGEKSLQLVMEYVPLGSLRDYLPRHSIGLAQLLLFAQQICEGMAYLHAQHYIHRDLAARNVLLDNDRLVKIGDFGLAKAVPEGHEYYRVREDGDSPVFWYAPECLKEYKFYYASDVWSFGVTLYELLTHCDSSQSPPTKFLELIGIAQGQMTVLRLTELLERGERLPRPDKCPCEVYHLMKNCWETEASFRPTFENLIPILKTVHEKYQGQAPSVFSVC
Chain of CYP450 2C19 (P33261 whole entry): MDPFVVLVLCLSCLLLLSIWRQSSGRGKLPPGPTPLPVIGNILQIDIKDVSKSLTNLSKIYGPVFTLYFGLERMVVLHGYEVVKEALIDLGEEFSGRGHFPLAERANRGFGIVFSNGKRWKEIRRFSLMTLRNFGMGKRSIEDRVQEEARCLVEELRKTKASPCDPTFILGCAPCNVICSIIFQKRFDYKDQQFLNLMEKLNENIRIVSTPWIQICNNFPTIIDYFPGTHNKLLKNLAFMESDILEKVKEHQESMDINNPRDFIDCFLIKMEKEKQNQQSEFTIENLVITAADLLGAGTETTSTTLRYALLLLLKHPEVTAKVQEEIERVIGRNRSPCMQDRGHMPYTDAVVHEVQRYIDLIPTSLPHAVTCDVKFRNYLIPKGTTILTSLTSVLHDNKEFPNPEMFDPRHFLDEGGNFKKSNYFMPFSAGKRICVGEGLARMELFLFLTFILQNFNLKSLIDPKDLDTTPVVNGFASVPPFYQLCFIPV
Chain of CYP450 2C9 (P11712 whole entry): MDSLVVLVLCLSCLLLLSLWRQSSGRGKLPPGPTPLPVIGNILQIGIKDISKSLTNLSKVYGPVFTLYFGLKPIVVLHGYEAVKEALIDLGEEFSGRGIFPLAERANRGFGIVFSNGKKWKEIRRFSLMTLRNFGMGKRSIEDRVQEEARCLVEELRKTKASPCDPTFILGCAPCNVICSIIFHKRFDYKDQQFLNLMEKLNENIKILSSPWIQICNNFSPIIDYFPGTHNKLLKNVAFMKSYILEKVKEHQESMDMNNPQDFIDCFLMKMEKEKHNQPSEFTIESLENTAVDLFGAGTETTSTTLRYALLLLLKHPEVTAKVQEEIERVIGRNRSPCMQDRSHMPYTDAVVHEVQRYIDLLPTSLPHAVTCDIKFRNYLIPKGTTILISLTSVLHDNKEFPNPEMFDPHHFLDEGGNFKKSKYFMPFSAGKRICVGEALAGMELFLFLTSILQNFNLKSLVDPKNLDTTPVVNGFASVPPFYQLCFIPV

In the case of `CNC(=O)c1cnc2cc1Nc1cc(cc(-c3ccn(C)n3)c1OC)CCOCc1cccc(n1)N2` [QL-1200186, 5^6-methoxy-N-methyl-5^5-(1-methyl-1H-pyrazol-3-yl)-8-oxa-2,4-diaza-1(2,6),3(2,4)-dipyridina-5(1,3)-benzenacyclononaphane-3^5-carboxamide], the “safety in toxicological studies” value [1] is reported as “excellent safety”, the “safety in toxicological studies” value [2] is reported as “excellent safety” and the IC50 (TYK2/JAK1 [3]) is reported as 1.61 nM. For the same compound, the “differentiation and maturation of monocytes into dendritic cells (CD80, CD83, CD86 expression)” value (human monocytes) was “significantly inhibited”, the “GM-CSF-pSTAT5 in U937 (JAK2/JAK2) inhibition” value (JAK2/JAK2; @10μM) was “no inhibition @10μM” and the IC50 (JAK2/JAK2; JAK2/JAK2-dependent, read-out: GM-CSF-stimulated STAT5 phosphorylation IC50) was over 10000 nM. The IC50 (JAK2 (JH1)) was over 9900 nM, the “Kinase assay (JH1) JAK2 IC50” value (JAK2 (JH1)) was “did not show inhibitory activity” and the IC50 (JAK3 (JH1)) was over 9900 nM. For the same compound, the “Kinase assay (JH1) JAK3 IC50” value (JAK3 (JH1)) was “did not show inhibitory activity”, the IC50 (TYK2 JH1 domain) was over 9900 nM and the “Kinase assay (JH1) TYK2 IC50” value (TYK2 JH1 domain) was “did not show inhibitory activity”. For the same compound, the IC50 (TYK2/JAK1 [4]) was 0.46 nM, the IC50 (JAK1 (JH1)) was over 9900 nM and the “Kinase assay (JH1) JAK1 IC50” value (JAK1 (JH1)) was “did not show inhibitory activity”. The IC50 (TYK2/JAK1 [5]) was 7.26 nM, the IC50 (TYK2/JAK1 [6]) was 1.03 nM and the “IFNα-stimulated phosphorylation of TYK2 in Jurkat cells” value (TYK2) was “blocked IFNα-stimulated phosphorylation of TYK2 in Jurkat cells in a concentration-dependent manner”. It also gave an IC50 (CYP450 2D6) of over 50000 nM, an IC50 (CYP450 2C19) of 2900 nM and an IC50 (CYP450 2C9) of 6400 nM.
